Source: patent US12391737B2, “Soluble NPY2 receptor agonists” (Boehringer Ingelheim International GmbH, priority 2020, dated 2025)
*1 amine or outer side, *2 acyl side, *3 side chain or, on linkers, in order; H or OH if unused. Where a SMILES comes first, the peptide text is derived from it. Side-chain parts run from the residue outwards. The star is where a group is joined. C18 diacid = O=C(O)CCCCCCCCCCCCCCCCC(=O)*; γGlu = O=C(O)[C@H](CCC(=O)[*:2])N[*:1]; Isovaleryl = CC(C)CC(=O)*; Ahx = NCCCCCC(=O)O

Legend:
[1] = biological target: T1, Human Neuropeptide Y2 Receptor (Homo sapiens, UniProt P49146); assay: Radioligand binding competition assay (RLB); settings: Table 3, 125I-PYY(1-36) competition; read-out: Ki
T1 construct: purchased CHEMICON HTS066M
T1 sequence (P49146 1-381): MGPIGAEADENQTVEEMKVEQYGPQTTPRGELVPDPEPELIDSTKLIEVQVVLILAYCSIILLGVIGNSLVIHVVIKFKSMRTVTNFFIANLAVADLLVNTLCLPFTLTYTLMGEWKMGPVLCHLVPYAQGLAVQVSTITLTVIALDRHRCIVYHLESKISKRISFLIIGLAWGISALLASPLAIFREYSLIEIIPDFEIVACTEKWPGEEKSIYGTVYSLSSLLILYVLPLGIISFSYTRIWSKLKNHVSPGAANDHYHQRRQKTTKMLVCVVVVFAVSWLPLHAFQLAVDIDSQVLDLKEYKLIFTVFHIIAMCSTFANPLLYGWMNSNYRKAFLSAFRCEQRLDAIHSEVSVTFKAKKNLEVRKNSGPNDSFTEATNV
In short: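 IC50 values come from sigmoidal dose-response fits of scintillation counts after peptides competed for radioligand binding at receptor membranes (0.5 μg protein/well). Incubation ran 2 h at room temperature in HEPES buffer, pH 7.4, with Mg2+, Ca2+ and 0.2% ovalbumin.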

[2] = Solubility determination; settings: for Sol6: pH 6; for Sol7: pH 7
In short: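 Sample: TFA-salt peptide at 10 mg/ml target in 0.1 M Na diphosphate, pH 6.4 or 7.0, shaken 2 h RT, filtered, diluted to 1 mg/ml.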

[3] = biological target: T2, human NPY5 receptor (hY5R) (Homo sapiens, UniProt Q15761); assay: HTRF cAMP Gi assay, hY5R
T2 sequence (Q15761 1-445): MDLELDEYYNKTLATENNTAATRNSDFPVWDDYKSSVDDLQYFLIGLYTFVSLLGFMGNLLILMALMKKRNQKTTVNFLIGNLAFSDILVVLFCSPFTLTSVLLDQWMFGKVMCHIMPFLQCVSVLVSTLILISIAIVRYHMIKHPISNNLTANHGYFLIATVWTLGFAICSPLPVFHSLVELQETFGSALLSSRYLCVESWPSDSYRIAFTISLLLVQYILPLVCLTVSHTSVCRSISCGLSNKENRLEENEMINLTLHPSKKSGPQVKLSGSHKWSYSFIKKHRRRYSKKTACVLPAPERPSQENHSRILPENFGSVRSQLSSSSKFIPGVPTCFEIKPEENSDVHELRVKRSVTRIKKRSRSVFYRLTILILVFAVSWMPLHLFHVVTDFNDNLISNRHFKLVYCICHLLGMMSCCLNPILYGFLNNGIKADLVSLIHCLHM

Structure (SMILES)	Ki [1]	Sol6 [2]	Sol7 [2]	EC50 [3]
CC(C)CC(=O)N[C@@H](C)C(=O)N1CCC[C@H]1C(=O)N[C@@H](CCC(=O)O)C(=O)N[C@@H](CCCCNC(=O)CCCCCNC(=O)CC[C@H](NC(=O)CCCCCCCCCCCCCCCCC(=O)O)C(=O)O)C(=O)N1CCC[C@H]1C(=O)N[C@@H](CCC(=O)O)C(=O)N[C@@H](CCC(=O)O)C(=O)N[C@@H](CC(=O)O)C(=O)N[C@@H](C)C(=O)N[C@@H](CO)C(=O)N1CCC[C@H]1C(=O)N[C@@H](CCC(=O)O)C(=O)N[C@@H](CCC(=O)O)C(=O)N[C@@H](CC(C)C)C(=O)N[C@@H](CCC(N)=O)C(=O)N[C@@H](CCC(N)=O)C(=O)N[C@@H](Cc1ccc(O)cc1)C(=O)N[C@@H](Cc1ccc(O)cc1)C(=O)N[C@H](C(=O)N[C@@H](CO)C(=O)N[C@@H](CC(C)C)C(=O)N[C@@H](CCCNC(=N)N)C(=O)N[C@@H](Cc1c[nH]cn1)C(=O)N[C@@H](Cc1ccc(O)cc1)C(=O)N[C@@H](Cc1ccc(O)cc1)C(=O)N[C@@H](Cc1c[nH]cn1)C(=O)N[C@@H](Cc1c[nH]c2ccccc12)C(=O)N[C@@H](CC(C)C)C(=O)N[C@H](C(=O)N[C@@H](CCCNC(=N)N)C(=O)N[C@@H](CCC(N)=O)C(=O)N[C@@H](CCCNC(=N)N)C(=O)N[C@@H](Cc1ccc(O)cc1)C(N)=O)[C@@H](C)O)C(C)C [Compound 12, N{alpha-4}-(3-methylbutanoyl)-N{epsilon-7}-(6-[(4S)-4-carboxy-4-(17-carboxyheptadecanamido)butanamido]hexanoyl)[4A,7K,9E,18Q,19Q,22V,28Y,29H,30W,31L]-hPYY(4-36)] (Isovaleryl-APEK([Ahx-γGlu-C18 diacid])PEEDASPEELQQYYVSLRHYYHWLTRQRY-NH2)	4.16 nM	9.4 mg/mL	9.8 mg/mL	> 5000 nM
CC[C@H](C)[C@H](NC(=O)[C@H](CCC(=O)O)NC(=O)[C@H](CCC(=O)O)NC(=O)[C@@H]1CCCN1C(=O)[C@H](CO)NC(=O)[C@H](C)NC(=O)[C@H](CC(=O)O)NC(=O)[C@H](CCC(=O)O)NC(=O)[C@H](CCC(=O)O)NC(=O)[C@@H]1CCCN1C(=O)[C@H](CCCCNC(=O)CCCCCNC(=O)CC[C@H](NC(=O)CCCCCCCCCCCCCCCCC(=O)O)C(=O)O)NC(=O)[C@H](CCC(=O)O)NC(=O)[C@@H]1CCCN1C(=O)[C@H](C)NC(=O)CC(C)C)C(=O)N[C@@H](CCC(N)=O)C(=O)N[C@@H](CCC(N)=O)C(=O)N[C@@H](Cc1ccc(O)cc1)C(=O)N[C@@H](Cc1ccc(O)cc1)C(=O)N[C@H](C(=O)N[C@@H](CO)C(=O)N[C@@H](CC(C)C)C(=O)N[C@@H](CCCNC(=N)N)C(=O)N[C@@H](Cc1c[nH]cn1)C(=O)N[C@@H](Cc1ccc(O)cc1)C(=O)N[C@@H](Cc1ccc(O)cc1)C(=O)N[C@@H](CC(N)=O)C(=O)N[C@@H](Cc1c[nH]c2ccccc12)C(=O)N[C@@H](CC(C)C)C(=O)N[C@H](C(=O)N[C@@H](CCCNC(=N)N)C(=O)N[C@@H](CCC(N)=O)C(=O)N[C@@H](CCCNC(=N)N)C(=O)N[C@@H](Cc1ccc(O)cc1)C(N)=O)[C@@H](C)O)C(C)C [Compound 15, N{alpha-4}-(3-methylbutanoyl)-N{epsilon-7}-(6-[(4S)-4-carboxy-4-(17-carboxyheptadecanamido)butanamido]hexanoyl)[4A,7K,9E,17I,18Q,19Q,22V,28Y,30W,31L]-hPYY(4-36)]	3.98 nM	9.3 mg/mL	9.2 mg/mL	> 5000 nM
